Experimental data reported in PMC12867150, “A fungi-derived cyclic peptide enhances Th9-mediated antitumor immunity by targeting ZAP70 and SREBP1” (The Journal of Clinical Investigation, 2025).
Values joined by “and” are separate entries in the source; they are usually repeats but may differ in a detail not shown here. Equal entries are not always repeated.

How the values were obtained:
Assay type in all cases: cell-based, mouse
Th9 cells [1] = test: Seahorse extracellular acidification rate, glycolysis stress test (Figure 4B-D); set-up: basal glycolysis of seahorse extracellular flux: unit not given here
Experimental: After stimulation, cells were washed, resuspended in Seahorse XF assay medium (Agilent Technologies; pH 7.40–7.45, catalog 103576-100) and seeded at 5 × 10^5 cells per well in Seahorse XF96 microplates. Plates were centrifuged at 400 × g for 5 minutes to promote adherence and monolayer formation, and all conditions were tested in quadruplicate.
Glycolytic activity was measured on a Seahorse XFe96 Extracellular Flux Analyzer (Agilent Technologies) using the XFe96 Glycolysis Stress Test kit (Agilent Technologies, catalog 103020-100) per the manufacturer’s instructions. Sequential injections of glucose (10 mM), oligomycin (1 μM), and 2-deoxyglucose (2-DG; 50 mM) were administered to determine ECAR as a proxy for glycolytic function. A glycolytic index was calculated from ECAR values obtained before and after each injection.

[2] = test system: mitochondria of Th9 cells; test: Transmission electron microscopy of mitochondrial number and diameter (Figure 4J-K)
Experimental: Mitochondrial mass and membrane potential were assessed using MitoTracker™ Deep Red FM (Thermo Fisher Scientific, catalog M22426) and TMRM (tetramethylrhodamine methyl ester; Macklin, catalog T868125), respectively, following the manufacturers’ protocols. Cells were incubated with the respective dyes, washed, and subjected to flow cytometry or fluorescence microscopy analysis. For ultrastructural assessment, mitochondrial number and diameter were quantified from high-resolution transmission electron microscopy (TEM) images using ImageJ software.

Th9 cells [3] = test: IL-9+ Th9 cells transduced with MIGR1 or SREBP1 vector (S8K-L); conditions: for IL-9 gate number: representative flow plot, Figure S8K; for IL-9 expression of Th9 cells: Supplemental Figure 8L
Experimental: For murine T cell transduction, MIGR1-based retroviral vector encoding Srebf1 was used. HEK293T cells were transfected with these constructs using Lipofectamine 3000 (Thermo Fisher Scientific) to produce viral particles. Supernatants were collected between 48 and 72 hours after transfection, filtered through a 0.45 μm membrane, and stored at –80°C. Naive murine CD4^+ T cells were activated with plate-bound anti-CD3 (2 μg/mL, clone 17A2, BioXCell) and soluble anti-CD28 (1 μg/mL, clone 37.51, BioXCell) stimulation in the presence of subset-specific polarizing cytokines and then transduced with viral supernatant supplemented with polybrene (10 μg/mL). […]
Ctrl MIGR1EpACtrl SREBP1EpA
Figure S8. […]
(K and L) Flow-cytometric analysis of IL-9 expression in Th9 cells transduced with either control (MIGR1) or SREBP1- […]
overexpressing vectors, with or without EpA treatment, showing representative plots (K) and quantification of IL-9⁺ cells (L) (n = 3). […]
(n = 3). Statistical analysis was performed using one-way ANOVA followed by Tukey’s post hoc test (G and H, J, L, N). ns, not significant. Repeated data are presented as mean ± SEM. *p < 0.05, **p < 0.01, ***p < 0.001, ****p < 0.0001.

[4] = EpA 10 μM, 4 days, result in words

anteiso-C15 Leu7 surfactin [EpA] was tested, and the “basal and maximal ECAR” value (Th9 cells [1]; [4]) was “significantly elevated”, the “extracellular acidification rate (ECAR)” value (Th9 cells [1]; [4]) was “marked increase” and the “basal glycolysis of seahorse extracellular flux” value (Th9 cells [1]; Figure 4C, individual replicates, n = 6) was 3.18 and 3.13 and 4.92 and 4.79 and 3.98 and 4.85. The “max glycolytic capacity of seahorse extracellular flux” value (Th9 cells [1]; Figure 4D, individual replicates, n = 6, in mpH/min (unit assumed)) was 34.82 and 36.26 and 48.55 and 43.93 and 34.44 and 51.9, the Number of mitochonodrion/cell ([2]; Figure 4J, individual cells) was 12 and 23 and 11 and 16 and 10 and 21 and 9 and 17 and 6 and 7 and 24 and the “number and diameter of mitochondria” value ([2]; result in words) was “increased number and diameter of mitochondria”. For the same substance, the IL-9 gate number (Th9 cells [3]; MIGR1 control vector) was 69.8, the “IL-9 expression of Th9 cells” value (Th9 cells [3]; MigR1, replicate 1) was 69.8 and the “IL-9 expression of Th9 cells” value (Th9 cells [3]; MigR1, replicate 2) was 68.8. The “IL-9 expression of Th9 cells” value (Th9 cells [3]; MigR1, replicate 3) was 68.6, the IL-9 gate number (Th9 cells [3]; SREBP1-overexpressing vector) was 50.3 and the “IL-9 expression of Th9 cells” value (Th9 cells [3]; SREBP1, replicate 1) was 50.3. For the same substance, the “IL-9 expression of Th9 cells” value (Th9 cells [3]; SREBP1, replicate 2) was 48.8, the “IL-9 expression of Th9 cells” value (Th9 cells [3]; SREBP1, replicate 3) was 60.7 and the “EpA-induced IL-9 increase (protein) upon SREBP1 overexpression” value (Th9 cells [3]; result in words) was “markedly suppressed”.
